According to patent US5468760A, “Aralkyl-N-hydroxyureas as inhibitors of 5-lipoxygenase and oxidation of low density lipoprotein” (American Home Products Corporation, priority 1993, dated 1995):

Experiments:
LTB4 Synthesis = assay: Reverse Passive Arthus Reaction (pleurisy), LTB4 in pleural exudate; assay type: in vivo, rat (male Lewis); conditions: p.o.
Description: 3. Reverse Passive Arthus Reaction
A reverse passive Arthus reaction is induced in the pleural cavity of male Lewis rats (150-200 g; fasted overnight prior to use) by the intravenous administration of bovine serum albumin (BSA; 4 mg/0.2 ml) followed 30 minutes later by the injection of rabbit anti-BSA (1 mg/0.2 ml; lyophilized IgG fraction; Organon Teknika, West Chester, Pa.) into the right pleural space under halothane anesthesia. Drugs or vehicle (0.5% Tween-80) control are administered orally in a volume of 1 ml/100 g body weight at 1 hour prior to the anti-BSA. Animals are sacrificed at either the time of peak eicosanoid production (i.e. 5 minutes after anti-BSA for immunoreactive TxB2, 10 minutes for immunoreactive LTB4, 20 minutes for immunoreactive LTC4) or at the time of peak neutrophil infiltration (4 hours after anti-BSA) by CO2 inhalation. The pleural cavity is then exposed., the fluid exudate removed by gentle vacuum aspiration and the volume of exudate is recorded. For the determination of cellular infiltration, the pleural cavity is rinsed with 3 ml of 0.1% EDTA in sterile saline, and the recovered wash is pooled with the exudate. Cell number is determined on a model ZBI Coulter counter. For determination of eicosanoid production, undiluted pleural exudate is microfuged and the supernatant is extracted with ethanol (8-10 times volume). Extracts are either stored at -20° C., or are evaporated to dryness under a stream of N2 and reconstituted in radioimmunoassay (RIA) buffer.
Eicosanoids are quantitated by RIA according to the procedure specified by the RIA kit manufacturer (Advanced Magnetics, Cambridge, Mass.). Briefly, 100 μl of ^3 H-labeled eicosanoid and 100 μl of specific antibody are sequentially added to 100 μl of extracted pleural exudate in BGG-phosphate buffer which contains 0.01M phosphate, 0.1% bovine gamma globulin and 0.1% sodium azide at pH 7.0. Antibody-bound eicosanoid is separated from unbound eicosanoid by the addition of 750 μl of dextran (0.4%)-coated charcoal (Norit A) containing 0.1% sodium azide. The mixture is centrifuged at 2000 RPM at 5° C. for 15 minutes to pellet the charcoal and adsorbed unbound eicosanoid. Antibody-bound labeled eicosanoid is quantitated by counting in a liquid scintillation counter, and is correlated to concentration by a standard curve.

[1] = test system: low density lipoprotein (LDL); assay: Inhibition of Copper Ion Mediated Oxidation of Low Density Lipoprotein; assay type: biochemical; conditions: Cu^+2 mediated oxidation of rabbit or monkey LDL; 37° C., 90 minutes; absorbance at 532 nm
Description: 5. Inhibition of Copper Ion Mediated Oxidation of Low Density Lipoprotein
In this in vitro assay, the inhibition of Cu^+2 mediated oxidation of rabbit or monkey LDL by an invention compound is determined spectrophotometricallly. Oxidation of LDL results in the formation of LDL-diene which absorbs light at 532 nm. Inhibition of oxidation of LDL leads to a decrease in absorbance at 532 nm.
Rabbit or monkey LDL is prepared according to the procedures of Havel, Eder and Gragdon, "The Distribution and Chemical Composition of Ultracentrifugally Separated Lipoproteins in Human Serum,: J. Clin. Invest. 34, 1345-1353 (1955) and Parhtasarathy, Wieland and Steriberg, "A Role for Endothelial Cell Lipoxygenase in the Oxidative Modification of Low Density Lipoprotein," Proc. Natl. Acad. Sci. USA 86, 1046-1050 (1989). Test compound solutions are prepared by dissolving the invention compounds in ethanol at concentrations up to 248 μM. The medium used is Dulbecco's phosphate buffered saline containing 0.5 mg/ml bovine serum albumin. For standards, 0 to 10 μl of an aqueous solution of 1,1,3,3-tetraethoxypropane (1 μmol/ml H2 O) in 4.1 ml of medium is used.
Test compound solution (100 μl) is added to 4 ml of medium in incubation tubes. To each tube is added 10 μl of LDL solution and 25 μl of aqueous copper sulfate solution (1.32 mg/ml H2 O). The tubes are incubated at 37° C. for 90 minutes and the oxidation reaction quenched by addition of 1 ml of thiobarbituric acid solution (0.67% in 50% acetic acid). The tubes are heated at 90° C. for 1 hour, then chilled in an ice bath and the chromophore extracted into 2 ml of n-butanol. Absorbence is read at 532 nm and the results are reported as nmols of malondialdehyde equivalents.
Significant differences (p<0.05) are determined by the Dunnett T-test or by the Student-Newman-Keuls Test for significant differences between means. The assay is conducted using several concentrations [I] of the inhibitor test compounds. […] The IC50 is determined by non-linear regression, plotting log [I] vs. % inhibition. […]

[2] = test system: LT-dependent bronchoconstriction; assay: Inhibition of Bronchoconstriction in Guinea Pigs Induced by Exogenously Administered Antigen; assay type: in vivo, guinea pig (male); conditions: Cavia porcellus, 5 min, 5 min post-antigen challenge; for inhibition in vivo at 10 mg/kg: iv, 10 mg/kg i.v.
Description: 4. Inhibition of Brochoconstriction in Guinea Pigs Induced by Exogenously Administered Antigen
Male guinea pigs (Charles River, Wilmington, Mass.) were sensitized 3-4 weeks prior to antigen challenge by administration of 2 i.m. injections of ovalbumin, 1 into each hind limb (35 mg total). Sensitized animals (500-600 g) were fasted overnight prior to experimentation. Conscious animals were then dosed p.o. with drug or vehicle alone (0.5% Tween 80 in H2 O) at the indicated times prior to antigen challenge, or anesthetized animals were dosed i.v. with drug or vehicle alone (DMSO) 5 min prior to antigen challenge. Animals were anesthetized by urethane (2.8 g/kg i.p.). A carotid artery and jugular vein were cannulated to allow for the monitoring of blood pressure and the administration of drugs, respectively. The trachea was then cannulated and connected to a Harvard Apparatus rodent ventilator (S. Natick, Mass.). Spontaneous respiration was abolished by the administration of succinylcholine (2.5 mg/kg i.v.). The animals were then ventilated with room air at a rate of 65 breaths per min. Airway inflation pressure was measured using a Statham pressure transducer (Gould Instruments, Cleveland, Ohio) connected to the tracheal cannula via a side-arm and recorded on a Grass Instruments recorder (Quincy, Mass.). The tidal volume (approximately 10 cc/kg) was adjusted to give a baseline inflation pressure of 8-10 cm H2 O at end inspiration. Animals were then allowed 20 min to stabilize.
Following the stabilization period, animals were given i.v. injections of pyrilamine (5 mg/kg), propranolol (0.1 mg/kg) and indomethacin (10 mg/kg) at 15, 10 and 5 min, respectively, prior to antigen challenge. This pretreatment results in an LT-dependent bronchoconstriction following antigen challenge, which was accomplished by i.v. administration of ovalbumin (10 mg/kg). Only one bronchoconstriction per animal was induced. End-inspiratory inflation pressure (in cm H2 O over baseline) was measured at 5 min post-antigen challenge. A mean value and standard error for the % inhibition of control bronchoconstriction in each drug-treated group was then calculated.

SMILES	IC50 [1] [nM]	% Inhibition LTB4 Synthesis (LTB4 Synthesis; 25 mg/kg) [%]	% Inhibition LTB4 Synthesis (LTB4 Synthesis; 10 mg/kg) [%]	inhibition in vivo at 25 mg/kg ([2]; po, 25 mg/kg p.o.) [%]	inhibition in vivo at 10 mg/kg [2] [%]
Cc1oc(-c2ccccc2)nc1COc1cccc(CN(O)C(N)=O)c1 [Example 1, 1-Hydroxy-1-[3-(5-methyl-2-phenyl-oxazol-4-ylmethoxy)-benzyl]-urea]	640	79	–	–	–
NC(=O)N(O)Cc1cccc(OCc2csc(-c3ccccc3)n2)c1 [Example 5, 1-Hydroxy-1-[3-(2-phenyl-thiazol-4-ylmethoxy)-benzyl]-urea]	–	–	43	29	–
Cc1oc(-c2ccccc2)nc1COc1cc(F)cc(CN(O)C(N)=O)c1 [Example 13, 1-[3-Fluoro-5-(5-methyl-2-phenyl-oxazol-4-ylmethoxy)-benzyl]-1-hydroxy-urea]	–	–	17	–	29

Now from value to molecule, other results behind:

IC50 [1] [nM]	SMILES	% Inhibition LTB4 Synthesis (LTB4 Synthesis; 25 mg/kg) [%]	% Inhibition LTB4 Synthesis (LTB4 Synthesis; 10 mg/kg) [%]	inhibition in vivo at 25 mg/kg ([2]; po, 25 mg/kg p.o.) [%]	inhibition in vivo at 10 mg/kg [2] [%]
590	NC(=O)N(O)Cc1cccc(OCc2csc(-c3ccc(Cl)cc3)n2)c1 [Example 6, 1-Hydroxy-1-[3-[2-(4-chloro-phenyl)-thiazol-4-ylmethoxy]-benzyl]-urea]	–	–	–	70
570	Cc1oc(-c2ccc(F)cc2)nc1COc1cccc(CN(O)C(N)=O)c1 [Example 9, 1-[3-[2-(4-fluorophenyl)-5-methyl-oxazol-4-ylmethoxy]-benzyl]-1-hydroxy-urea]	–	27	–	65
